{"source": "patent US20230210096A1", "about": "“NON-HUMAN ANIMAL MODELS FOR AGING AND/OR NEURODEGENERATION” (University of Pittsburgh - Of the Commonwealth System of …, priority 2020, published 2023)", "key": {"[1]": {"tested_on": "AANAT-KO primary cerebrocortical neurons (PCNs)", "experiment": "MMP (TMRM) and mitochondrial ROS (Mitosox) in PCNs", "type": "cell-based, mouse", "details": "AANAT-KO PCN, DIV21, melatonin 5 µM in culture medium", "protocol": "(§1) N2a cells were obtained from ATCC and grown in DMEM/F12 medium with 10% FBS. AANAT-KO N2a cells were generated as described elsewhere (see, e.g., Suofu et al., PNAS 114:E7997-E8006 (2017)). N2a cells were differentiated by exposing them to 10 µM retinoic acid (RA) with 2% fetal bovine serum (FBS) for 8 days. Every alternate day, the culture medium of differentiating N2a cells was replaced with fresh medium containing 10 µM of RA. N2a cells were treated with 5 µM melatonin during differentiation to evaluate the effect of melatonin in WT and AANAT-KO N2a differentiated neurons. Fresh melatonin was added with RA every alternate day for 8 days. All experiments were performed in 8-day-differentiated neurons with or without melatonin. STHdh^Q7/Q7 (Q7) STHdh^Q111/Q111 (Q111) cells were grown in MEM culture medium with 10% FBS. […]\n(§2) ROS accumulation in cells was estimated by either DCFDA for total ROS or Mitosox for mitochondrial ROS. Cells were incubated in 20 µM DCFDA for 45 minutes or 5 µM Mitosox for 15 minutes at 37° C. and fluorescence was measured using plate reader or flowcytometry. […] Cells were incubated in 2 µg/mL JC-1 or 25 nM TMRM for 30 minutes at 37° C. and fluorescence were measured using plate reader or flowcytrometry. […]"}, "[2]": {"tested_on": "AANAT-KO primary cerebrocortical neurons (PCNs)", "experiment": "qPCR of cytosolic mtDNA in PCNs", "type": "cell-based, mouse", "details": "AANAT-KO PCN, DIV21, melatonin 5 µM", "protocol": "(§3) N2a cells were obtained from ATCC and grown in DMEM/F12 medium with 10% FBS. AANAT-KO N2a cells were generated as described elsewhere (see, e.g., Suofu et al., PNAS 114:E7997-E8006 (2017)). N2a cells were differentiated by exposing them to 10 µM retinoic acid (RA) with 2% fetal bovine serum (FBS) for 8 days. Every alternate day, the culture medium of differentiating N2a cells was replaced with fresh medium containing 10 µM of RA. N2a cells were treated with 5 µM melatonin during differentiation to evaluate the effect of melatonin in WT and AANAT-KO N2a differentiated neurons. Fresh melatonin was added with RA every alternate day for 8 days. All experiments were performed in 8-day-differentiated neurons with or without melatonin. STHdh^Q7/Q7 (Q7) STHdh^Q111/Q111 (Q111) cells were grown in MEM culture medium with 10% FBS. Differentiation of Q7 and Q111 cells was induced by exposing cells to 10 ng/mL α-FGF, 250 µM 3-isobutyl-1-methylxanthine (IBMX), 200 nM phorbol 12-myristate 13-acetate (TPA), 50 µM forskolin and 10 µM dopamine for 2 days. […]\n(§4) For measurement of mtDNA in cytosol in cells, cell fractions were prepared using Cell Fractionation Kit (Abeam). […] The copy number of mtDNA encoding cytochrome c oxidase 1 (mt-CO1), mt-Dloop1 and mt-Dloop3 was measured by quantitative real-time PCR with same volume of DNA solution. […]"}, "[3]": {"tested_on": "AANAT-KO primary cerebrocortical neurons (PCNs)", "experiment": "Immunoblot of cGAS, STING, IRF3, caspase-1 in PCNs", "type": "cell-based, mouse", "details": "AANAT-KO PCN, DIV21, melatonin 5 µM", "protocol": "as §1, with “melatonin.” for “melatonin. STHdh^Q7/Q7 (Q7) STHdh^Q111/Q111 (Q111) cells were grown in MEM culture medium with 10% FBS.”\n(§5) Samples (isolated mitochondria or whole-cell lysates) were cleared by centrifugation at 20,000 x g, equal amounts of protein were separated on Novex 4-12% gradient polyacrylamide gels (Invitrogen), and proteins transferred overnight onto 0.45 µm polyvinylidene difluoride (PVDF) membranes. The membranes were then incubated with the indicated primary antibodies overnight at 4° C. followed by incubation with secondary antibodies (Li-Cor) for 1 hour at room temperature, which were detected using the Odyssey CLx Infrared Imaging System (Li-Cor). Band intensities were quantified using Image Studio (Li-Cor)."}, "[4]": {"tested_on": "AANAT-KO primary cerebrocortical neurons (PCNs)", "experiment": "Cytokine ELISA in culture medium of PCNs", "type": "cell-based, mouse", "details": "AANAT-KO PCN, DIV21, melatonin 5 µM", "protocol": "(§6) N2a cells were obtained from ATCC and grown in DMEM/F12 medium with 10% FBS. AANAT-KO N2a cells were generated as described elsewhere (see, e.g., Suofu et al., PNAS 114:E7997-E8006 (2017)). N2a cells were differentiated by exposing them to 10 µM retinoic acid (RA) with 2% fetal bovine serum (FBS) for 8 days. Every alternate day, the culture medium of differentiating N2a cells was replaced with fresh medium containing 10 µM of RA. N2a cells were treated with 5 µM melatonin during differentiation to evaluate the effect of melatonin in WT and AANAT-KO N2a differentiated neurons. Fresh melatonin was added with RA every alternate day for 8 days. All experiments were performed in 8-day-differentiated neurons with or without melatonin. STHdh^Q7/Q7 (Q7) STHdh^Q111/Q111 (Q111) cells were grown in MEM culture medium with 10% FBS. Differentiation of Q7 and Q111 cells was induced by exposing cells to 10 ng/mL α-FGF, 250 µM 3-isobutyl-1-methylxanthine (IBMX), 200 nM phorbol 12-myristate 13-acetate (TPA), 50 µM forskolin and 10 µM dopamine for 2 days. AANAT-KO and littermate WT primary cerebro-cortical neuron (PCN) cultures were prepared from embryonic day (E) 15.5 embryos, as described elsewhere (see, e.g., Yano et al., Nature neuroscience 17:822 (2014))."}, "[5]": {"tested_on": "AANAT-KO differentiated N2a cells", "experiment": "8-OHDG immunofluorescence (mtDNA oxidative damage) in differentiated N2a cells", "type": "cell-based, mouse", "details": "melatonin 5 µM", "protocol": "as §6, with “(2014)). […]” for “(2014)).”"}, "[6]": {"tested_on": "mitochondria of AANAT-KO differentiated N2a cells", "experiment": "Mitochondrial in vitro protein import assay (pOTC/mOTC)", "type": "cell-based, mouse", "details": "melatonin", "protocol": "as §1\nOrnithine transcarbamylase (OTC) precursor cDNA in pGEM-3Zf(+)-pOTC plasmid was transcribed and translated in vitro using the TNT Coupled Reticulocyte Lysate System (Promega) in the presence of [^35S] methionine (PerkinElmer). […] Mature OTC, which represents the cleaved protein after translocation into the mitochondrial matrix, was quantified by ImageJ (NIH). […]"}, "[7]": {"tested_on": "AANAT-KO differentiated N2a cells", "experiment": "ROS (Mitosox) and MMP (JC-1/TMRM) in differentiated N2a cells", "type": "cell-based, mouse", "details": "melatonin 5 µM", "protocol": "as §1, §2"}, "[8]": {"tested_on": "AANAT-KO differentiated N2a cells", "experiment": "qPCR of cytosolic mtDNA in differentiated N2a cells", "type": "cell-based, mouse", "details": "melatonin 5 µM", "protocol": "as §3, §4"}, "[9]": {"tested_on": "AANAT-KO differentiated N2a cells", "experiment": "Immunoblot of inflammatory, caspase and synaptic markers in differentiated N2a cells", "type": "cell-based, mouse", "details": "melatonin 5 µM", "protocol": "as §6, §5"}, "[10]": {"tested_on": "AANAT-KO differentiated N2a cells", "experiment": "Cytokine ELISA in culture medium of differentiated N2a cells", "type": "cell-based, mouse", "details": "melatonin 5 µM", "protocol": "as §6"}, "[11]": {"tested_on": "AANAT-KO differentiated N2a cells", "experiment": "Neurite length and number by βIII-tubulin staining", "type": "cell-based, mouse", "details": "melatonin 5 µM", "protocol": "as §6, with “(2014)). […]” for “(2014)).”"}, "R6/2 mice": {"tested_on": "R6/2 mice", "experiment": "Melatonin injection in R6/2 mouse model of HD: cytosolic mtDNA, cGAS/STING/IRF3, cytokines", "type": "in vivo", "details": "melatonin 30 mg/kg injected daily from 6 to 9 weeks of age", "protocol": "Since melatonin is protective in R6/2 mice and melatonin is deficient in humans with HD, it was evaluated whether exogenous melatonin reduces mtDNA release and consequent inflammation. Six-week old R6/2 mice were injected with melatonin daily for 3 weeks. Melatonin inhibited mtDNA release and ameliorated cGAS/STING/IRF3 upregulation in cortex and striatum in 9-week R6/2 mice (FIGS. 12D and E, and FIG. 13A).\nR6/2 mice, which carry the promoter sequence and exon 1 of a mutant human HTT gene with approximately 150 CAG repeats, were obtained from JAX (Bar Harbor, ME). A colony was maintained by breeding R6/2 males with B6CBAF1 females (JAX). CAG repeat length was determined for every mouse in the colony and mice with 150 +/-10 CAG repeats were used. PCR genotyping was performed. Three, six and Nine week-old R6/2 mice were used in the experiments.\nas §5\n(§7) Total RNA was isolated using the RNeasy Plus kit (Qiagen) and quantified using a ND-1000 spectrophotometer. cDNA was prepared using 1000 ng total RNA by a reverse transcription PCR (RT-PCR) using a high capacity cDNA reverse transcription kit (Applied Biosystems). qPCR was performed on cDNA using SYBR Green chemistry. qPCR was performed on a Biorad CFX touch PCR using Applied Biosystems PowerUp SYBR green master mix. Fold changes in expression were calculated by the ΔΔCt method using mouse β-Actin as an endogenous control for mRNA expression. All fold changes were expressed normalized to the untreated control. […]"}, "Q111 cells": {"tested_on": "Q111 cells", "experiment": "ROS (Mitosox) and MMP (TMRM) in differentiated Q7 and Q111 neurons", "type": "cell-based, mice", "details": "Q111 cells transfected with DNase 1, 2 µg/mL, LDH control", "protocol": "as §1, §2"}, "[12]": {"tested_on": "Q7 and Q111 differentiated neurons", "experiment": "Immunoblot of cGAS, IRF3, STING in differentiated Q7 and Q111 neurons", "type": "cell-based, mice", "details": "differentiated Q111 neurons transfected with DNase 1, LDH control", "protocol": "as §1, with “melatonin.” for “melatonin. STHdh^Q7/Q7 (Q7) STHdh^Q111/Q111 (Q111) cells were grown in MEM culture medium with 10% FBS.”\nas §5, with “Studio (Li-Cor). […]” for “Studio (Li-Cor).”"}, "[13]": {"tested_on": "Q7 and Q111 differentiated neurons", "experiment": "Cytokine ELISA and mRNA qPCR in differentiated Q7 and Q111 neurons", "type": "cell-based, mice", "details": "Q111 differentiated neurons transfected with DNase 1, LDH control", "protocol": "as §1\nas §7, with “expression.” for “expression. All fold changes were expressed normalized to the untreated control.”"}}, "data": [{"molecule": "COc1ccc2[nH]cc(CCNC(C)=O)c2c1", "note": "[melatonin, Melatonin]", "values": [{"measurement": "MMP (TMRM fluorescence)", "setting": "[1]", "result": "restored"}, {"measurement": "mitochondrial ROS (Mitosox)", "setting": "[1]", "result": "restored"}, {"measurement": "cytosolic mtDNA (mt-CO1, mt-Dloop1, mt-Dloop3)", "setting": "[2]", "result": "inhibited"}, {"measurement": "cGAS/STING/IRF3 protein levels", "setting": "[3]", "result": "inhibited"}, {"measurement": "caspase-1", "setting": "[3]", "result": "inhibited"}, {"measurement": "proinflammatory cytokines secretion", "setting": "[4]", "result": "inhibited"}, {"measurement": "mtDNA damage (8-OHDG)", "setting": "[5]", "result": "mitigated"}, {"measurement": "mitochondrial protein import", "setting": "[6]", "result": "mitigated"}, {"measurement": "MMP (JC-1 fluorescence)", "setting": "[7]", "result": "mitigated"}, {"measurement": "ROS (Mitosox fluorescence)", "setting": "[7]", "result": "mitigated"}, {"measurement": "mtDNA release (cytosolic mtDNA)", "setting": "[8]", "result": "prevented"}, {"measurement": "caspase-3 activation", "setting": "[9]", "result": "inhibited"}, {"measurement": "expression of PSD95 (post-synaptic marker)", "setting": "[9]", "result": "increased"}, {"measurement": "expression of synaptophysin (pre-synaptic marker)", "setting": "[9]", "result": "increased"}, {"measurement": "inflammatory signaling pathways (Nf-kβ phosphorylation, caspase-1 cleavage, cGAS/STING/IRF3 levels)", "setting": "[9]", "result": "inhibited"}, {"measurement": "pro-inflammatory cytokines secretion", "setting": "[10]", "result": "inhibited"}, {"measurement": "average neurite length", "setting": "[11]", "result": "rescued"}, {"measurement": "average neurite number", "setting": "[11]", "result": "rescued"}, {"measurement": "expression of pro-inflammatory cytokines in brain", "setting": "R6/2 mice", "result": "reduced"}, {"measurement": "cGAS/STING/IRF3 upregulation", "setting": "R6/2 mice; cortex and striatum", "result": "ameliorated"}, {"measurement": "mtDNA release (cytosolic mtDNA)", "setting": "R6/2 mice; cortex and striatum", "result": "inhibited"}]}, {"molecule": "DNAse1: DNAse1 protein transfected to degrade cytosolic DNA (protein, UniProt P24855 23-282, looked up) Deoxyribonuclease-1: LKIAAFNIQTFGETKMSNATLVSYIVQILSRYDIALVQEVRDSHLTAVGKLLDNLNQDAPDTYHYVVSEPLGRNSYKERYLFVYRPDQVSAVDSYYYDDGCEPCGNDTFNREPAIVRFFSRFTEVREFAIVPLHAAPGDAVAEIDALYDVYLDVQEKWGLEDVMLMGDFNAGCSYVRPSQWSSIRLWTSPTFQWLIPDSADTTATPTHCAYDRIVVAGMLLRGAVVPDSALPFNFQAAYGLSDQLAQAISDHYPVEVMLK", "values": [{"measurement": "elevated ROS (Mitosox)", "setting": "Q111 cells", "result": "did not alter"}, {"measurement": "reduced MMP (TMRM)", "setting": "Q111 cells", "result": "did not alter"}, {"measurement": "cGAS/STING/IRF3 levels", "setting": "[12]", "result": "inhibited"}, {"measurement": "proinflammatory cytokine secretion", "setting": "[13]", "result": "inhibited"}]}]}
